Test results reported in patent US20020071869A1, “Microparticle composition and method” (priority 2000, published 2002).

Assay: Critical micelle concentration of surfactant
Type: physicochemical
Settings: at 25° C.

CCCCCCCCCCCCOS(=O)(=O)[O-].[Na+] [SDS, sodium dodecyl sulfate]
critical micelle concentration: 8.1 mM
